Test results published in PMC5011932, “Comparative pharmacokinetics and pharmacodynamics of intravenous artelinate versus artesunate in uncomplicated Plasmodium coatneyi-infected rhesus monkey model” (Malaria Journal, 2016).
Values joined by “and” are separate entries in the source; they are usually repeats but may differ in a detail not shown here. Identical values can stand only once. Like-named read-outs stand apart in the source and are kept apart here.

Legend:
Plasmodium coatneyi = assay: In vivo pharmacodynamics (parasite clearance) in uncomplicated P. coatneyi-infected splenectomized rhesus monkey model
Experimental: Twenty-two adult colony-born, Indian-origin rhesus macaques (Macaca mulatta) naïve monkeys were splenectomized and recovered well more than 1 month prior to entering the study. […] Twenty-two animals were randomized to two experiments of 11 monkeys. […] The control monkeys received intramuscular quinine treatment and the experimental animals received intravenous artemisinin candidates.
Based on our previous model validation, blood smears were performed to detect malaria parasites starting prior to inoculation on day 0 and continued daily (0700–0800 h). The monkeys were physically restrained in the squeeze cage restraint apparatus and approximately 0.1–0.2 ml whole blood was collected from each monkey by lancet puncture of the lateral auricular vein. Thick and thin smears were made on the same microscope glass slide and subsequently fixed in methanol and stained with Giemsa. When the smears were positive, white blood cell count (WBC) and/or red blood cell count (RBC) were also performed using automated haematology analyzer Sysmex K800 to calculate parasite density. Haematocrits were checked as needed. At study days 6–12, additional blood samples were obtained from all animals in the afternoon (1500–1600 h) to monitor parasitaemia levels. Daily blood smears were continued until two consecutive days with negative smears. Then the smear monitoring schedule was reduced to two times weekly for 2 weeks and then weekly for 6 weeks after completion of the last treatment.
Blood smear staining and parasitaemia determination took about 2 h. […] The control monkey received quinine treatment and the ten experimental animals received intravenous artemisinin derivative candidate.
After a week wash-out and recovery period, P. coatneyi (1 mL of >50,000 parasitized RBCs per microlitre or 5 × 10^6 RBC with a 1 % parasitaemia) were inoculated from a donor monkey into all the monkeys. The treatment was initiated at day 6 after inoculation at a parasitaemia ≥3 % or >200,000 parasites μL^−1 when the cohort of animals was minimally symptomatic. Drugs were given for 3 days with a loading dose initially followed by ½ of the first dose on the 2nd and 3rd days.
Blood smear were collected once daily in the morning. Once positive parasitaemia was observed and reached 2000 parasites μL^−1, blood smears were collected twice, in the morning and afternoon. Blood for slides preparation were collected from ear for thick and thin smear preparation. Blood films on glass slides were air dried, fixed with 100 % methanol, stained with Giemsa, and read under ×100 magnification oil emersion for parasite determination.
First, a thick smear was performed for parasite detection by reading the slides at least 50 fields under ×100 magnification oil emersion.

P. falciparum clone (W2) = assay: Ex vivo Plasmodium falciparum-based bioassay (BA) of rhesus plasma, effect kinetics (ePD) as DHA equivalents; format: cell-based; conditions: for Bioactivity %AUC20 / Bioactivity Cl: mean
Experimental: Blood was collected for pharmacokinetic/pharmacodynamics (PK/PD) analysis after the first dose only due to rapid clearance of artemisinin derivatives. Heparinized blood was collected at 0, 5, 20, 40 min, 1, 3, and 6 h post-dose and plasma samples were separated within 2 h by centrifugation (1500g, 10 min). Aliquots of samples were made for simultaneous measurement by HPLC [16] and bioassay [14], and stored at −80 °C until analysis.
The plasma anti-malarial activities of the artemisinin derivatives were measured using a previously published method [14]. […] After centrifugation, the supernatant (100 µL) was transferred to a 96-well flat bottom plate. Twofold serial dilutions were then made using heat inactivated pooled control serum (human:rhesus = 1:1). A suspension of malaria (W2 clone) infected erythrocytes was added to each well. The microtitre plate was placed into a gas-tight plexiglass chamber, flushed with a gas mixture of 90 % CO2, 5 % O2, and 5 % N2, and placed into an incubator (37 °C). Following 24 h incubation, the plate was removed from the chamber and pulsed with [^3H]-hypoxanthine solution to each well and incubated for another 18–20 h before harvesting. The incorporation of [^3H]-hypoxanthine by the parasites in each well was determined by counting in a scintillation counter.
A dose–response curve for each plasma sample was constructed by plotting [^3H]-hypoxanthine uptake on the Y-axis against the corresponding dilution factor on the X-axis after logarithmic transformation. The dilution factor value that inhibits parasite growth by 50 % (DF50) of each plasma sample was determined.

[1] = Deaths and tolerability in P. coatneyi-infected rhesus monkeys; format: in vivo, rhesus macaques (Macaca mulatta); conditions: for Deaths: infected rhesus, IV AL 11.8 mg kg^−1
[2] = set-up: method as in PMID 16860356, PMID 16126619; conditions: rats; cited from earlier work
[3] = Plasma pharmacokinetics by HPLC-ECD after IV dose in rhesus monkeys
Experimental: These doses were chosen as the minimal effective doses (from previous model development and validation studies, unpublished data) and blood was collected for pharmacokinetic analysis. After a week wash-out and recovery period, P. coatneyi (1 mL of >50,000 parasitized RBCs per microlitre or 5 × 10^6 RBC with a 1 % parasitaemia) were inoculated from a donor monkey into all the monkeys. The treatment was initiated at day 6 after inoculation at a parasitaemia ≥3 % or >200,000 parasites μL^−1 when the cohort of animals was minimally symptomatic. Drugs were given for 3 days with a loading dose initially followed by ½ of the first dose on the 2nd and 3rd days.
Blood was collected for pharmacokinetic/pharmacodynamics (PK/PD) analysis after the first dose only due to rapid clearance of artemisinin derivatives. Heparinized blood was collected at 0, 5, 20, 40 min, 1, 3, and 6 h post-dose and plasma samples were separated within 2 h by centrifugation (1500g, 10 min). Aliquots of samples were made for simultaneous measurement by HPLC [16] and bioassay [14], and stored at −80 °C until analysis. All glassware was silanized before use with a 0.5 % aqueous solution (v/v) of Pierce Aquasil (Rockford, IL, USA) according to the manufacturer’s recommended procedure. Solid-phase extraction was performed on C-18 elution cartridge (3.0 ml, J.T. Baker Co.) using a VAC ELUTE SPS24 sample processing station (Analytichem International, Harbour City, CA, USA). The cartridge was preconditioned by sequential washing with 2.5 ml acetonitrile, 2.5 ml methanol and 2.5 ml water. One ml of distilled water was added to the cartridge before adding plasma sample (0.5 ml). Then, the cartridge was washed with 2.5 ml distilled water, 2.5 ml of 0.05 % H3PO4 (pH 4.5) and 2.5 ml of 20 % acetonitrile and completely dried by closing the vacuum for 15 min. The analytes were collected by eluting with 0.5 ml methanol three times and then with 0.5 ml 90:10 n-butyl chloride: ethyl acetate twice. The organic phases were pooled. The combined organic phases were then evaporated to dryness under a stream of nitrogen at room temperature. Extraction residues were reconstituted with 50:50 ethanol: water (0.3 ml), at least 16 h before injection. The injection volume was 100 µl for all samples.
The plasma concentration of parent drugs, AL and AS, and their primary metabolites, DHA and 2-hydroxyartelinate (OHAL) respectively, were measured by HPLC with electrochemical detection in reductive mode (HPLC-ECD) [16], which was the only method for artemisinin compounds then (Additional files 1 and 2).
HPLC with reductive electrochemical detection was performed using a model BAS 200B liquid chromatography (Bioanalytical Systems, Inc., West Lafayette, Indiana, USA). A Nova-Pak® C18 (3.9 × 150 mm, Waters Corporation, Milford, MA, USA) was used with 40 % acetonitrile in sodium acetate buffer (pH 3.6) as mobile phase. Detection was performed using a thin dual-layer glassy carbon electrode run in parallel mode at a potential of −1.0 V versus Ag/AgCl. The system was operated at the following temperatures: mobile phase 35 °C, column and detector oven 30 °C, cell 31 °C with the flow rate of 1.5 mL min^−1. Artemisinin (ART) was used as an internal standard. Samples were injected via Gilson model 231 XL sampling injector equipped with a 100 µL loop, a Gilson model 401 dilutor/pipettor, a sampler controller keypad (Gilson Medical Electronics, Middleton, WI, USA), and a Valco electrically actuated switching valve (Valco Instrument Co. Inc) was used. This system automatically deoxygenated and injected sample, which permits the high sample throughput associated with automated injection. Data were acquired and analysed using a Millennium^32 Chromatography Manager (Waters Corporation, Milford, MA, USA).

[4] = DHA equivalents, infected rhesus

In the case of CC1CCC2C(C)C(OCc3ccc(C(=O)O)cc3)OC3OC4(C)CCC1C32OO4.CC1CCC2C(C)C(OCc3ccc(C(=O)O)cc3)OC3OC4(C)CCC1C32OO4.O (stereo not drawn) [IV AL, 4-(10′ dihyro-artemisinin-oxymethyl) benzoic acid hemihydrate], the “Parasite/µL, mean” value (Plasmodium coatneyi; 0.29 day post-dose) is reported as 704,770 Parasite/µL, the “Parasite Reduction” value (Plasmodium coatneyi; 0.29 day post-dose, IV AL experiment (mean; IM QN = its control monkey)) is reported as 20.4% and the “Parasite/µL, mean” value (Plasmodium coatneyi; 1.00 day post-dose) is reported as 124,294 Parasite/µL. For the same molecule, the “Parasite Reduction” value (Plasmodium coatneyi; 1.00 day post-dose, IV AL experiment) was 82.2%, the “Parasite/µL, mean” value (Plasmodium coatneyi; 1.29 day post-dose) was 32,703 Parasite/µL and the “Parasite Reduction” value (Plasmodium coatneyi; 1.29 day post-dose, IV AL experiment) was 95.2%. For the same molecule, the “Parasite/µL, mean” value (Plasmodium coatneyi; 2.00 day post-dose) was 6,978 Parasite/µL, the “Parasite Reduction” value (Plasmodium coatneyi; 2.00 day post-dose, IV AL experiment) was 98.9% and the “Parasite/µL, mean” value (Plasmodium coatneyi; 2.29 day post-dose) was 3,976 Parasite/µL. The “Parasite Reduction” value (Plasmodium coatneyi; 2.29 day post-dose, IV AL experiment) was 99.4%, the “Parasite/µL, mean” value (Plasmodium coatneyi; 3.00 day post-dose) was 895 Parasite/µL and the “Parasite Reduction” value (Plasmodium coatneyi; 3.00 day post-dose, IV AL experiment) was 99.9%. For the same molecule, the “Parasite/µL, mean” value (Plasmodium coatneyi; 3.29 day post-dose) was 377 Parasite/µL, the “Parasite Reduction” value (Plasmodium coatneyi; 3.29 day post-dose, IV AL experiment) was 99.9% and the “Parasite/µL, mean” value (Plasmodium coatneyi; 4.00 day post-dose) was 568 Parasite/µL. The “Parasite Reduction” value (Plasmodium coatneyi; 4.00 day post-dose, IV AL experiment) was 99.9%, the “Parasite/µL, mean” value (Plasmodium coatneyi; 4.29 day post-dose) was 8,704 Parasite/µL and the “Parasite Reduction” value (Plasmodium coatneyi; 4.29 day post-dose, IV AL experiment) was 98.5%. For the same molecule, the “Parasite/µL, mean” value (Plasmodium coatneyi; 5.00 day post-dose) was 2,880 Parasite/µL, the “Parasite Reduction” value (Plasmodium coatneyi; 5.00 day post-dose, IV AL experiment) was 99.5% and the “Parasite/µL, mean” value (Plasmodium coatneyi; 5.29 day post-dose) was 1,141 Parasite/µL. The “Parasite Reduction” value (Plasmodium coatneyi; 5.29 day post-dose, IV AL experiment) was 99.8%, the “Parasite/µL, mean” value (Plasmodium coatneyi; 6.00 day post-dose) was 18,619 Parasite/µL and the “Parasite Reduction” value (Plasmodium coatneyi; 6.00 day post-dose, IV AL experiment) was 96.8%. For the same molecule, the “Parasite/µL, mean” value (Plasmodium coatneyi; 6.29 day post-dose) was 92,458 Parasite/µL, the “Parasite Reduction” value (Plasmodium coatneyi; 6.29 day post-dose, IV AL experiment) was 84.4% and the “Parasite/µL, mean” value (Plasmodium coatneyi; 7.00 day post-dose) was 51,036 Parasite/µL. The “Parasite Reduction” value (Plasmodium coatneyi; 7.00 day post-dose, IV AL experiment) was 91.4%, the “PCT of individual animals” value (Plasmodium coatneyi; IV AL: the only two determinable, IV AS: the two most rapid) was 5.3 days and 4.0 days and the “Recrudescence, median (range, n)” value (Plasmodium coatneyi; in vivo) was 6.5 (6–7, 2) days. The “R, Day (recrudescence day), mean” value (Plasmodium coatneyi; n 2 IV AL, n 10 IV AS) was 6.50 days, the Treatment failure (Plasmodium coatneyi; parasite counts never reached zero) was “Six animals failed treatment” and the PC50 (Plasmodium coatneyi; range in evaluable animals (4 of 8 IV AL, 3 of 10 IV AS)) was 2.72 to 10.9 h. The “Antimalarial activity expressed as DHA equi., mean” value (shortened to “Antimalarial activity expressed”) (P. falciparum clone (W2); 0.08 h, healthy rhesus) was 5.69 µmol/L, the “Antimalarial activity expressed” value (P. falciparum clone (W2); 0.08 h, infected rhesus) was 7.58 µmol/L and the “Antimalarial activity expressed” value (P. falciparum clone (W2); 0.33 h, healthy rhesus) was 4.09 µmol/L. For the same molecule, the “Antimalarial activity expressed” value (P. falciparum clone (W2); 0.33 h, infected rhesus) was 5.32 µmol/L, the “Antimalarial activity expressed” value (P. falciparum clone (W2); 0.67 h, healthy rhesus) was 2.56 µmol/L and the “Antimalarial activity expressed” value (P. falciparum clone (W2); 0.67 h, infected rhesus) was 3.58 µmol/L. The “Antimalarial activity expressed” value (P. falciparum clone (W2); 1.0 h, healthy rhesus) was 1.75 µmol/L, the “Antimalarial activity expressed” value (P. falciparum clone (W2); 1.0 h, infected rhesus) was 2.58 µmol/L and the “Antimalarial activity expressed” value (P. falciparum clone (W2); 3.0 h, healthy rhesus) was 0.07 µmol/L. The “Antimalarial activity expressed” value (P. falciparum clone (W2); 3.0 h, infected rhesus) was 0.19 µmol/L, the “Antimalarial activity expressed” value (P. falciparum clone (W2); 6.0 h, healthy rhesus) was 0 µmol/L and the “Antimalarial activity expressed” value (P. falciparum clone (W2); 6.0 h, infected rhesus) was 0 µmol/L. For the same molecule, the “AUC0–20, ePD” value (P. falciparum clone (W2); [4]) was 115 µM·min, the “AUC0–∞, ePD” value (P. falciparum clone (W2); [4]) was 426 µM·min and the “Bioactivity %AUC20” value (P. falciparum clone (W2); healthy rhesus) was 31.7%. The “Bioactivity Cl” value (P. falciparum clone (W2); healthy rhesus) was 4.75 L hr^-1 kg ^-1, the “Bioactivity %AUC20” value (P. falciparum clone (W2); infected rhesus) was 27.7% and the “Bioactivity Cl” value (P. falciparum clone (W2); infected rhesus) was 3.08 L hr^-1 kg ^-1. The Deaths [1] was “two deaths in the infected animals within 2.5 h”, the Deaths ([1]; listed as AL) was “two died following AL regimen before parasite clearance” and the Tolerability ([1]; other animals in the experiment) was “well tolerated by the other animals”. The toxicity [2] was “more toxic than AS”, the “Plasma concentration, mean” value ([3]; 0.08 h, healthy rhesus, after IV AL 11.8 or AS 8.0 mg/kg) was 61.58 µmol/L and the “Plasma concentration, mean” value ([3]; 0.08 h, infected rhesus, after IV AL 11.8 or AS 8.0 mg/kg) was 62.96 µmol/L. For the same molecule, the “Plasma concentration, mean” value ([3]; 0.33 h, healthy rhesus) was 43.27 µmol/L, the “Plasma concentration, mean” value ([3]; 0.33 h, infected rhesus) was 46.68 µmol/L and the “Plasma concentration, mean” value ([3]; 0.67 h, healthy rhesus) was 26.12 µmol/L. The “Plasma concentration, mean” value ([3]; 0.67 h, infected rhesus) was 26.79 µmol/L, the “Plasma concentration, mean” value ([3]; 1.0 h, healthy rhesus) was 16.73 µmol/L and the “Plasma concentration, mean” value ([3]; 1.0 h, infected rhesus) was 21.04 µmol/L. For the same molecule, the “Plasma concentration, mean” value ([3]; 3.0 h, healthy rhesus) was 0.68 µmol/L, the “Plasma concentration, mean” value ([3]; 3.0 h, infected rhesus) was 1.24 µmol/L and the “Plasma concentration, mean” value ([3]; 6.0 h, healthy rhesus) was 0 µmol/L. The “Plasma concentration, mean” value ([3]; 6.0 h, infected rhesus) was 0.05 µmol/L, the “DHA in plasma after IV AL” value ([3]; healthy or infected monkeys) was “no DHA was found in plasma” and the “AUC0–20, parent drug” value ([3]; infected rhesus) was 925 µM·min. The “AUC0–∞, parent drug” value ([3]; infected rhesus) was 3706 µM·min, the Cmax ([3]; mean, P. coatneyi infected rhesus, IV AL/Lys 11.8 or AS/Na 8 mg/kg, analyte = label) was 61.5 µM and the “%AUC20” value ([3]; mean, healthy rhesus) was 33.4%. For the same molecule, the “AUC 0-20” value ([3]; mean, healthy rhesus) was 940 µmol·min/L, the “AUC(0-inf)” value ([3]; mean, healthy rhesus) was 3,039 µmole min L^-1 and the Cl ([3]; mean, healthy rhesus) was 0.45 L hr^-1 kg ^-1. The Vz ([3]; mean, healthy rhesus) was 0.26 L kg ^-1, the “t 1/2, z” value ([3]; mean, healthy rhesus) was 25.3 min and the Cmax ([3]; mean, healthy rhesus, IV AL/Lys 11.8 or AS/Na 8 mg/kg) was 61.6 µM. For the same molecule, the “%AUC20” value ([3]; mean, infected rhesus) was 31.5%, the “AUC 0-20” value ([3]; mean, infected rhesus) was 954 µmol·min/L and the “AUC(0-inf)” value ([3]; mean, infected rhesus) was 3,392 µmole min L^-1. The Cl ([3]; mean, infected rhesus) was 0.43 L hr^-1 kg ^-1, the Vz ([3]; mean, infected rhesus) was 0.28 L kg ^-1 and the “t 1/2, z” value ([3]; mean, infected rhesus) was 29.6 min. For the same molecule, the “Vz, parent” value ([3]; median, infected rhesus) was 0.259 L/kg, the “% AUC0–20 / AUC0–∞” value ([3]; parent drug, infected rhesus) was 24.6% and the Cmax ([3]; read-out: Cmax, parent drug, infected rhesus) was 60.2 µM.
